Results published in patent US20250098679A1, “HERBICIDAL PYRIDONE DERIVATIVES” (SYNGENTA CROP PROTECTION AG, priority 2021, published 2025).

Experiments:
Type in all cases: in vivo
Settings in all cases: evaluated after 13 days
[1] = system: Setaria faberi (SETFA); experiment: Pre-emergence Test, Setaria faberi (SETFA)
[2] = system: Echinochloa crus-galli (ECHCG); experiment: Pre-emergence Test, Echinochloa crus-galli (ECHCG)
[3] = system: Zea mays (ZEAMX); experiment: Pre-emergence Test, Zea mays (ZEAMX)
[4] = system: Ipomoea hederacea (IPOHE); experiment: Pre-emergence Test, Ipomoea hederacea (IPOHE)
[5] = system: Amaranthus palmeri (AMAPA); experiment: Pre-emergence Test, Amaranthus palmeri (AMAPA)
[6] = system: Amaranthus retoflexus (AMARE); experiment: Pre-emergence Test, Amaranthus retoflexus (AMARE)
[7] = system: Setaria faberi (SETFA); experiment: Post-emergence Test, Setaria faberi (SETFA); design: key to percentage damage caused to the plant, SETFA (five-point scale): 5=81-100%, 4=61-80%, 3=41-60%, 2=21-40%, 1=0-20% damage
Procedure, shortened: (§1)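 Sown pots in a glasshouse (24/16 °C day/night, 14 h light, 65% humidity) were sprayed with compound in acetone/water (50:50) with 0.5% Tween 20, at 1000 g/ha unless otherwise stated. Damage was assessed 13 days after spraying and scored 1–5 (5=81-100%, 1=0-20%).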

[8] = system: Echinochloa crus-galli (ECHCG); experiment: Post-emergence Test, Echinochloa crus-galli (ECHCG); design: key to percentage damage caused to the plant, ECHCG (five-point scale): 5=81-100%, 4=61-80%, 3=41-60%, 2=21-40%, 1=0-20% damage
Procedure, shortened: as §1

[9] = system: Zea mays (ZEAMX); experiment: Post-emergence Test, Zea mays (ZEAMX); design: key to percentage damage caused to the plant, ZEAMX (five-point scale): 5=81-100%, 4=61-80%, 3=41-60%, 2=21-40%, 1=0-20% damage
Procedure, shortened: as §1

[10] = system: Ipomoea hederacea (IPOHE); experiment: Post-emergence Test, Ipomoea hederacea (IPOHE); design: key to percentage damage caused to the plant, IPOHE (five-point scale): 5=81-100%, 4=61-80%, 3=41-60%, 2=21-40%, 1=0-20% damage
Procedure, shortened: as §1

[11] = system: Amaranthus palmeri (AMAPA); experiment: Post-emergence Test, Amaranthus palmeri (AMAPA); design: key: 5=81-100%, 4=61-80%, 3=41-60%, 2=21-40%, 1=0-20% damage
Procedure, shortened: as §1

[12] = system: Amaranthus retoflexus (AMARE); experiment: Post-emergence Test, Amaranthus retoflexus (AMARE); design: key to percentage damage caused to the plant, AMARE (five-point scale): 5=81-100%, 4=61-80%, 3=41-60%, 2=21-40%, 1=0-20% damage
Procedure, shortened: as §1

SMILES	percentage damage caused to the plant, SETFA (five-point scale) ([7]; 250 g/Ha)	percentage damage caused to the plant, ECHCG (five-point scale) ([8]; 250 g/Ha)	percentage damage caused to the plant, ZEAMX (five-point scale) ([9]; 250 g/Ha)	percentage damage caused to the plant, IPOHE (five-point scale) ([10]; 250 g/Ha)	percentage damage caused to the plant, AMAPA (five-point scale) ([11]; 250 g/Ha)	percentage damage caused to the plant, AMARE (five-point scale) ([12]; 250 g/Ha)	Pre-emergence Test SETFA, percentage damage caused to the plant (five-point scale) ([1]; 1000 g/ha)	Pre-emergence Test ECHCG, percentage damage caused to the plant (five-point scale) ([2]; 1000 g/ha)	Pre-emergence Test ZEAMX, percentage damage caused to the plant (five-point scale) ([3]; 1000 g/ha)	Pre-emergence Test IPOHE, percentage damage caused to the plant (five-point scale) ([4]; 1000 g/ha)	Pre-emergence Test AMAPA, percentage damage caused to the plant (five-point scale) ([5]; 1000 g/ha)	Pre-emergence Test AMARE, percentage damage caused to the plant (five-point scale) ([6]; 1000 g/ha)	percentage damage caused to the plant, SETFA (five-point scale) ([7]; 1000 g/ha)	percentage damage caused to the plant, ECHCG (five-point scale) ([8]; 1000 g/ha)	percentage damage caused to the plant, ZEAMX (five-point scale) ([9]; 1000 g/ha)	percentage damage caused to the plant, IPOHE (five-point scale) ([10]; 1000 g/ha)	percentage damage caused to the plant, AMAPA (five-point scale) ([11]; 1000 g/ha)	percentage damage caused to the plant, AMARE (five-point scale) ([12]; 1000 g/ha)	also measured
CCn1c(Cn2nccc2OC(F)F)cc(=O)c(C(=O)O)c1-c1ccc(Cl)c(Cl)c1 [Compound 85, 2-(3,4-dichlorophenyl)-6-[[5-(difluoromethoxy)pyrazol-1-yl]methyl]-1-ethyl-4-oxo-pyridine-3-carboxylic acid]	4 (4=61-80%)	2 (2=21-40%)	0	4 (4=61-80%)	0	0	–	–	–	–	–	–	–	–	–	–	–	–	Pre-emergence Test SETFA, percentage damage caused to the plant (five-point scale) ([1]; 250 g/Ha (*)): 3 (3=41-60%); Pre-emergence Test ECHCG, percentage damage caused to the plant (five-point scale) ([2]; 250 g/Ha (*)): 2 (2=21-40%); Pre-emergence Test ZEAMX, percentage damage caused to the plant (five-point scale) ([3]; 250 g/Ha (*)): 0; Pre-emergence Test IPOHE, percentage damage caused to the plant (five-point scale) ([4]; 250 g/Ha (*)): 1 (1=0-20%); Pre-emergence Test AMAPA, percentage damage caused to the plant (five-point scale) ([5]; 250 g/Ha (*)): 0; Pre-emergence Test AMARE, percentage damage caused to the plant (five-point scale) ([6]; 250 g/Ha (*)): 0
CCn1c(Cn2cc(C(F)(F)F)nc2C)cc(=O)c(C(=O)O)c1-c1ccc(Cl)c(Cl)c1 [Compound 103, 2-(3,4-dichlorophenyl)-1-ethyl-6-[[2-methyl-4-(trifluoromethyl)imidazol-1-yl]methyl]-4-oxo-pyridine-3-carboxylic acid]	–	–	–	–	–	–	1 (1=0-20%)	1 (1=0-20%)	0	0	2 (2=21-40%)	1 (1=0-20%)	1 (1=0-20%)	1 (1=0-20%)	1 (1=0-20%)	0	1 (1=0-20%)	1 (1=0-20%)	–
CCn1c(Cn2nc(C(F)(F)F)nc2C)cc(=O)c(C(=O)O)c1-c1ccc(Cl)c(Cl)c1 [Compound 108, 2-(3,4-dichlorophenyl)-1-ethyl-6-[[5-methyl-3-(trifluoromethyl)-1,2,4-triazol-1-yl]methyl]-4-oxo-pyridine-3-carboxylic acid]	1 (1=0-20%)	1 (1=0-20%)	0	0	0	0	0	0	0	0	0	0	2 (2=21-40%)	2 (2=21-40%)	1 (1=0-20%)	0	0	0	–
CCn1c(Cn2nc(C(=O)OC)cc2C(=O)OC)cc(=O)c(C(=O)O)c1-c1ccc(Cl)c(Cl)c1 [Compound 115, 6-[[3,5-bis(methoxycarbonyl)pyrazol-1-yl]methyl]-2-(3,4-dichlorophenyl)-1-ethyl-4-oxo-pyridine-3-carboxylic acid]	0	0	0	0	1 (1=0-20%)	1 (1=0-20%)	1 (1=0-20%)	0	0	0	1 (1=0-20%)	0	0	0	1 (1=0-20%)	0	2 (2=21-40%)	0	–
CCn1c(Cn2ccc(CC#N)n2)cc(=O)c(C(=O)O)c1-c1ccc(Cl)c(Cl)c1 [Compound 175, 6-[[3-(cyanomethyl)pyrazol-1-yl]methyl]-2-(3,4-dichlorophenyl)-1-ethyl-4-oxo-pyridine-3-carboxylic acid]	0	1 (1=0-20%)	0	1 (1=0-20%)	0	0	3 (3=41-60%)	1 (1=0-20%)	0	1 (1=0-20%)	0	0	3 (3=41-60%)	2 (2=21-40%)	1 (1=0-20%)	2 (2=21-40%)	0	0	–
Cn1c(Cn2ccc(C(F)(F)F)n2)cc(=O)c(C(=O)O)c1-c1ccc(Cl)c(Cl)c1 [Compound 33, 2-(3,4-dichlorophenyl)-1-methyl-4-oxo-6-[[3-(trifluoromethyl)pyrazol-1-yl]methyl]pyridine-3-carboxylic acid]	3 (3=41-60%)	3 (3=41-60%)	1 (1=0-20%)	4 (4=61-80%)	1 (1=0-20%)	1 (1=0-20%)	5 (5=81-100%)	5 (5=81-100%)	0	0	3 (3=41-60%)	0	4 (4=61-80%)	4 (4=61-80%)	2 (2=21-40%)	3 (3=41-60%)	2 (2=21-40%)	3 (3=41-60%)	–
